Experimental data reported in PubChem BioAssay AID1963423 (Molecular Pharmacology Branch, DTP, NCI, 2024).

Tested on: 439559-082-T-J2-PDC complex spheroid growth
Assay: Anticancer human tumor 439559-082-T-J2-PDC patient-derived colon adenocarcinoma cell line growth inhibition [Asc]
Conditions: for IC50: curve of first compound; for viability, T/C: stronger effect = lower value
Outline: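 Complex solid-tumor spheroids incorporating human endothelial and mesenchymal stem cells received single agents or combinations over half-log dilution ranges anchored to clinical Cmax.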

[1] = second compound 0.00316 µM, first compound 0.00316 µM
[2] = second compound 0.00316 µM, first compound 0.01 µM
[3] = second compound 0.00316 µM, first compound 0.0316 µM
[4] = second compound 0.00316 µM, first compound 0.1 µM
[5] = second compound 0.01 µM, first compound 0.00316 µM
[6] = second compound 0.01 µM, first compound 0.01 µM
[7] = second compound 0.01 µM, first compound 0.0316 µM
[8] = second compound 0.01 µM, first compound 0.1 µM
[9] = second compound 0.0316 µM, first compound 0.00316 µM
[10] = second compound 0.0316 µM, first compound 0.01 µM
[11] = second compound 0.0316 µM, first compound 0.0316 µM
[12] = second compound 0.0316 µM, first compound 0.1 µM
[13] = second compound 0.1 µM, first compound 0.00316 µM
[14] = second compound 0.1 µM, first compound 0.01 µM
[15] = second compound 0.1 µM, first compound 0.0316 µM
[16] = second compound 0.1 µM, first compound 0.1 µM
[17] = second compound 0.316 µM, first compound 0.00316 µM
[18] = second compound 0.316 µM, first compound 0.01 µM
[19] = second compound 0.316 µM, first compound 0.0316 µM
[20] = second compound 0.316 µM, first compound 0.1 µM
[21] = second compound 1 µM, first compound 0.00316 µM
[22] = second compound 1 µM, first compound 0.01 µM
[23] = second compound 1 µM, first compound 0.0316 µM
[24] = second compound 1 µM, first compound 0.1 µM
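Also: spheroids exposed to agents for 7 days starting day 3 after seeding.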
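For viability, T/C in this document: percent of DMSO vehicle control viability with 100% = vehicle.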

Which results are given for `O=C(c1ccc(F)c(F)c1Nc1ccc(I)cc1F)N1CC(O)([C@@H]2CCCCN2)C1` + CNC(C)C(=O)NC1CN(S(=O)(=O)c2cccc(S(=O)(=O)N3CCC4CCC(C(=O)NC(c5ccccc5)c5ccccc5)N4C(=O)C(NC(=O)C(C)NC)C3)c2)CCC2CCC(C(=O)NC(c3ccccc3)c3ccccc3)N2C1=O?
IC50 (second compound 0.00316 µM): 262 nM; IC50 (second compound 0.01 µM): 248 nM; IC50 (second compound 0.0316 µM): 253 nM; IC50 (second compound 0.1 µM): 228 nM; IC50 (second compound 0.316 µM): 141 nM; IC50 (second compound 1 µM): 124 nM; viability, T/C [1]: 96.6%; viability, T/C [2]: 77.4%; viability, T/C [3]: 76.8%; viability, T/C [4]: 67.9%; viability, T/C (second compound 0.00316 µM, first compound 0.316 µM): 48.6%; viability, T/C (second compound 0.00316 µM, first compound 1 µM): 16.2%; viability, T/C [5]: 99.5%; viability, T/C [6]: 107%; viability, T/C [7]: 87.7%; viability, T/C [8]: 61.9%; viability, T/C (second compound 0.01 µM, first compound 0.316 µM): 51%; viability, T/C (second compound 0.01 µM, first compound 1 µM): 25.6%; viability, T/C [9]: 108%; viability, T/C [10]: 95.6%; viability, T/C [11]: 89.5%; viability, T/C [12]: 63.5%; viability, T/C (second compound 0.0316 µM, first compound 0.316 µM): 47.6%; viability, T/C (second compound 0.0316 µM, first compound 1 µM): 27.1%; viability, T/C [13]: 86.8%; viability, T/C [14]: 98.3%; viability, T/C [15]: 86.7%; viability, T/C [16]: 61.6%; viability, T/C (second compound 0.1 µM, first compound 0.316 µM): 46.7%; viability, T/C (second compound 0.1 µM, first compound 1 µM): 17%; viability, T/C [17]: 89.8%; viability, T/C [18]: 101%; viability, T/C [19]: 69.8%; viability, T/C [20]: 51.4%; viability, T/C (second compound 0.316 µM, first compound 0.316 µM): 46.8%; viability, T/C (second compound 0.316 µM, first compound 1 µM): 25%; viability, T/C [21]: 72.2%; viability, T/C [22]: 68%; viability, T/C [23]: 68.2%; viability, T/C [24]: 48.4%; viability, T/C (second compound 1 µM, first compound 0.316 µM): 39%; viability, T/C (second compound 1 µM, first compound 1 µM): 15.5%

For `NC1CCC(NC2CC2c2ccccc2)CC1` (centres undefined) + CNC(C)C(=O)NC1CN(S(=O)(=O)c2cccc(S(=O)(=O)N3CCC4CCC(C(=O)NC(c5ccccc5)c5ccccc5)N4C(=O)C(NC(=O)C(C)NC)C3)c2)CCC2CCC(C(=O)NC(c3ccccc3)c3ccccc3)N2C1=O, which IC50 (second compound 0.00316 µM) is on record?
Its IC50 is greater than 100 nM.

What about the IC50 (second compound 0.01 µM) of the same compound?
Its IC50 is greater than 100 nM.

And the IC50 (second compound 0.0316 µM)?
The IC50 was greater than 100 nM.

And the IC50 (second compound 0.1 µM)?
The IC50 was greater than 100 nM.

What about the IC50 (second compound 0.316 µM) of the same compound?
The IC50 was greater than 100 nM.

And the IC50 (second compound 1 µM)?
Its IC50 is greater than 100 nM.

What about the viability, T/C (second compound 0.00316 µM, first compound 0.000316 µM) of the same compound?
The viability, T/C was 104%.

What about the viability, T/C (second compound 0.00316 µM, first compound 0.001 µM) of the same compound?
The viability, T/C was 100%.

What about the viability, T/C [1] of the same compound?
The viability, T/C was 110%.

What about the viability, T/C [2] of the same compound?
The viability, T/C was 95.7%.

And the viability, T/C [3]?
Its viability, T/C is 98.4%.

And the viability, T/C [4]?
The viability, T/C was 98.2%.

What about the viability, T/C (second compound 0.01 µM, first compound 0.000316 µM) of the same compound?
The viability, T/C was 102%.

And the viability, T/C (second compound 0.01 µM, first compound 0.001 µM)?
Its viability, T/C is 95%.

And the viability, T/C [5]?
The viability, T/C was 109%.

And the viability, T/C [6]?
The viability, T/C was 111%.

What about the viability, T/C [7] of the same compound?
Its viability, T/C is 99.5%.

What about the viability, T/C [8] of the same compound?
Its viability, T/C is 107%.

What about the viability, T/C (second compound 0.0316 µM, first compound 0.000316 µM) of the same compound?
Its viability, T/C is 107%.

And the viability, T/C (second compound 0.0316 µM, first compound 0.001 µM)?
The viability, T/C was 91.3%.

What about the viability, T/C [9] of the same compound?
The viability, T/C was 101%.

What about the viability, T/C [10] of the same compound?
The viability, T/C was 109%.

What about the viability, T/C [11] of the same compound?
Its viability, T/C is 104%.

What about the viability, T/C [12] of the same compound?
The viability, T/C was 107%.

And the viability, T/C (second compound 0.1 µM, first compound 0.000316 µM)?
Its viability, T/C is 105%.

What about the viability, T/C (second compound 0.1 µM, first compound 0.001 µM) of the same compound?
The viability, T/C was 101%.

What about the viability, T/C [13] of the same compound?
The viability, T/C was 98.1%.

And the viability, T/C [14]?
Its viability, T/C is 104%.

And the viability, T/C [15]?
Its viability, T/C is 96.4%.

What about the viability, T/C [16] of the same compound?
Its viability, T/C is 98%.

What about the viability, T/C (second compound 0.316 µM, first compound 0.000316 µM) of the same compound?
Its viability, T/C is 95.9%.

And the viability, T/C (second compound 0.316 µM, first compound 0.001 µM)?
Its viability, T/C is 101%.

What about the viability, T/C [17] of the same compound?
Its viability, T/C is 93.6%.

What about the viability, T/C [18] of the same compound?
Its viability, T/C is 100%.

What about the viability, T/C [19] of the same compound?
The viability, T/C was 101%.

What about the viability, T/C [20] of the same compound?
Its viability, T/C is 97%.

And the viability, T/C (second compound 1 µM, first compound 0.000316 µM)?
The viability, T/C was 85.5%.

And the viability, T/C (second compound 1 µM, first compound 0.001 µM)?
The viability, T/C was 85.9%.

And the viability, T/C [21]?
The viability, T/C was 87.4%.

What about the viability, T/C [22] of the same compound?
The viability, T/C was 84.5%.

And the viability, T/C [23]?
Its viability, T/C is 86.3%.

And the viability, T/C [24]?
The viability, T/C was 77.3%.

With `CNC(C)C(=O)NC1CN(S(=O)(=O)c2cccc(S(=O)(=O)N3CCC4CCC(C(=O)NC(c5ccccc5)c5ccccc5)N4C(=O)C(NC(=O)C(C)NC)C3)c2)CCC2CCC(C(=O)NC(c3ccccc3)c3ccccc3)N2C1=O` (centres undefined) + CCN1C(C(=O)NC23CCC(C(=O)O)(CC2)CC3)C(c2cccc(Cl)c2F)C2(C(=O)Nc3cc(Cl)ccc32)C12CCCCC2 as the compound, how does the IC50 (second compound 0.03 µM) read?
Its IC50 is greater than 1000 nM.

What about the IC50 (second compound 0.0949 µM) of the same compound?
The IC50 was greater than 1000 nM.

What about the IC50 (second compound 0.3 µM) of the same compound?
The IC50 was greater than 1000 nM.

And the IC50 (second compound 0.949 µM)?
Its IC50 is greater than 1000 nM.

And the IC50 (second compound 3 µM)?
The IC50 was greater than 1000 nM.

What about the viability, T/C (second compound 0.03 µM, first compound 0.00316 µM) of the same compound?
The viability, T/C was 104%.

What about the viability, T/C (second compound 0.03 µM, first compound 0.01 µM) of the same compound?
The viability, T/C was 110%.

And the viability, T/C (second compound 0.03 µM, first compound 0.0316 µM)?
Its viability, T/C is 109%.

What about the viability, T/C (second compound 0.03 µM, first compound 0.1 µM) of the same compound?
Its viability, T/C is 95.5%.

And the viability, T/C (second compound 0.03 µM, first compound 0.316 µM)?
Its viability, T/C is 102%.

What about the viability, T/C (second compound 0.03 µM, first compound 1 µM) of the same compound?
The viability, T/C was 88%.

And the viability, T/C (second compound 0.0949 µM, first compound 0.00316 µM)?
The viability, T/C was 109%.

What about the viability, T/C (second compound 0.0949 µM, first compound 0.01 µM) of the same compound?
Its viability, T/C is 110%.

And the viability, T/C (second compound 0.0949 µM, first compound 0.0316 µM)?
Its viability, T/C is 106%.

What about the viability, T/C (second compound 0.0949 µM, first compound 0.1 µM) of the same compound?
Its viability, T/C is 96.8%.

What about the viability, T/C (second compound 0.0949 µM, first compound 0.316 µM) of the same compound?
Its viability, T/C is 93%.

And the viability, T/C (second compound 0.0949 µM, first compound 1 µM)?
The viability, T/C was 84.6%.

And the viability, T/C (second compound 0.3 µM, first compound 0.00316 µM)?
The viability, T/C was 109%.

And the viability, T/C (second compound 0.3 µM, first compound 0.01 µM)?
The viability, T/C was 105%.

What about the viability, T/C (second compound 0.3 µM, first compound 0.0316 µM) of the same compound?
Its viability, T/C is 113%.

And the viability, T/C (second compound 0.3 µM, first compound 0.1 µM)?
The viability, T/C was 94.8%.

What about the viability, T/C (second compound 0.3 µM, first compound 0.316 µM) of the same compound?
The viability, T/C was 84.7%.

And the viability, T/C (second compound 0.3 µM, first compound 1 µM)?
The viability, T/C was 82.5%.

What about the viability, T/C (second compound 0.949 µM, first compound 0.00316 µM) of the same compound?
Its viability, T/C is 103%.

And the viability, T/C (second compound 0.949 µM, first compound 0.01 µM)?
The viability, T/C was 113%.

What about the viability, T/C (second compound 0.949 µM, first compound 0.0316 µM) of the same compound?
Its viability, T/C is 126%.

What about the viability, T/C (second compound 0.949 µM, first compound 0.1 µM) of the same compound?
The viability, T/C was 101%.

And the viability, T/C (second compound 0.949 µM, first compound 0.316 µM)?
The viability, T/C was 92.8%.

What about the viability, T/C (second compound 0.949 µM, first compound 1 µM) of the same compound?
Its viability, T/C is 91.5%.

What about the viability, T/C (second compound 3 µM, first compound 0.00316 µM) of the same compound?
The viability, T/C was 99.1%.

And the viability, T/C (second compound 3 µM, first compound 0.01 µM)?
Its viability, T/C is 102%.

And the viability, T/C (second compound 3 µM, first compound 0.0316 µM)?
Its viability, T/C is 109%.

And the viability, T/C (second compound 3 µM, first compound 0.1 µM)?
The viability, T/C was 93.1%.

What about the viability, T/C (second compound 3 µM, first compound 0.316 µM) of the same compound?
Its viability, T/C is 75%.

And the viability, T/C (second compound 3 µM, first compound 1 µM)?
Its viability, T/C is 77.7%.
